# Data as given in patent publication US8436002B2, “AKT inhibitors” (Eli Lilly and Company, priority 2009, dated 2013).
# System: AKT
# Assay: AKT In Vivo Target Inhibition (IV), U87MG tumors in athymic rats
# Details: Rattus norvegicus, U-87 MG, IV dose 20 mpk, 4 hr post IV dose, n = 2, read-out: p(S9)GSK 3β - % inhibition
# Description: Exponentially growing U87MG cells derived from a human glioblastoma are implanted subcutaneously in the rear flank of athymic rats. When the tumors reach the size of 200-250 mm^3, compounds are administered to the animals by a single IV injection in a dose-response study or in a time-course study. At the end of each treatment, animals are asphyxiated with CO2. Tumors are harvested by surgical excision, quickly frozen in liquid nitrogen and stored at −80° C. until analysis. Sera are prepared from blood harvested from the heart by cardiac puncture and stored at −80° C. until analysis.
# The AKT inhibitor is extracted from serum with acetonitrite/methanol and analyzed alongside an internal standard by LC/MS/MS. […]
# Tumors are homogenized in 2 volumes of a lysis buffer containing 25 mM Tris (pH 7.5), Roche complete protease inhibitors, and 1 mM vanadate with Powergen 125 homogenizer, then sequentially passed through an 18 gauge needle and a 23 gauge needle. […] Protein concentrations in the cytoplasmic extracts are determined with a BCA kit. Phospho-GSK3b (pGSK3b) in the soluble extracts is analyzed with the ELISA Kit. For each study, percent inhibitions are calculated relative to the vehicle control group and ANOVA analysis is performed using the JMP software package for the determination of statistical significance.
compound,measurement,value
"C[C@@H]1CC(=O)Nc2ncnc(N3CCC(c4nc(C(F)(F)F)cn4CCN4CCCC4)CC3)c21 [Example 78, (R)-5-Methyl-4-(4-(1-(2-(pyrrolidin-1-yl)ethyl)-4-(trifluoromethyl)-1H-imidazol-2-yl)piperidin-1-yl)-5,6-dihydropyrido[2,3-d]pyrimidin-7(8H)-one]",inhibition at 20 mg/kg,48%
